Experimental data from paper PMC6949113, “Preclinical evaluation of AT-527, a novel guanosine nucleotide prodrug with potent, pan-genotypic activity against hepatitis C virus” (PLoS ONE, 2020).

Assay: Rat PK study, liver and heart tissue levels
Assay type: in vivo, Sprague-Dawley rat
Settings: 4 h after oral AT-527 500 mg/kg
Description: Rat pharmacokinetic (PK) study. Sprague-Dawley rats were obtained from SLAC Laboratory Animal Co., Ltd. (Shanghai, China), group housed (during the 3-day acclimation period) or individually housed (during the study) and provided ad libitum access to purified (reverse osmosis; RO) water and food except when fasted overnight prior to administration of test article, 4 h after which access to food was restored. Two groups of five rats (single sex/group) were administered a single dose of 500 mg/kg AT-527, suspended in 0.5% CMC-Na and 0.5% Tween 80, via nasogastric gavage followed by a vehicle flush of 3 mL (about 3 times the nasogastric tube volume). This dosage was selected because it was close to the anticipated highest dose to be used in a repeated oral dose toxicity study and would permit accurate assessments of plasma concentrations of metabolites. Blood samples (200 μL) were collected via the saphenous vein using manual restraint at 0.25, 0.5, 1, 2, 4, 6, 8, 10, 12, 24, 48 and 72 h post dose from three animals per sex, and at 0.25, 0.5, 1, 2 and 4 h post dose from two animals per sex. Blood samples were transferred to tubes containing 4 μL 0.5 M dipotassium ethylenediaminetetraacetic acid (K2EDTA) and 10 μL dichlorvos (2 mg/mL) to prevent coagulation and inhibit esterase activity, respectively, mixed and centrifuged (3000 x g, 10 min, 2–8°C) to prepare plasma samples which were quickly frozen on dry ice and stored at ≤ -80°C until LC-MS/MS analysis. […] After the 4-h blood collection, two rats per group were euthanized by CO2 inhalation followed by rapid excision and snap-freezing of the heart and liver in liquid nitrogen. The frozen organs were broken into small pieces and approximately 0.5 g of each tissue was homogenized in 5 volumes (w/v) pre-chilled homogenization solution (30% 268 mM EDTA adjusted to pH 7.2–7.4 with potassium hydroxide in MeOH) in a dry ice-ethanol bath. […]

C[C@@]1(F)[C@H](O)[C@@H](COP(=O)(O)OP(=O)(O)OP(=O)(O)O)O[C@H]1n1cnc2c(=O)[nH]c(N)nc21 [AT-9010]
fold higher in liver than in heart: 87 fold
mean heart concentration: 80 ± 41 pmol/g
mean liver concentration: 6974 ± 2844 pmol/g
